This passage reports CC50 and EC50 results from US20210395262A1, “INHIBITORS OF HUMAN IMMUNODEFICIENCY VIRUS REPLICATION” (ViiV HEALTHCARE UK (NO.5) LIMITED, priority 2018, published 2021).

The nature of data set [1]: Compound cytotoxicity, XTT-based colorimetric assay. The settings on record: human; uninfected MT2 cells, day 4, XTT; read-out: CC50. The class given is cell-based. Here is the method: Compound cytotoxicity and the corresponding CC50 values were determined using the same protocol as described in the antiviral assay except that uninfected cells were used. Cytotoxicity was assessed on day 4 in uninfected MT2 cells by using a XTT (2,3-bis[2-Methoxy-4-nitro-5-sulfophenyl]-2H-tetrazolium-5-carboxyanilide inner salt)-based colorimetric assay (Sigma-Aldrich, St Louis, Mo.).

Another data set concerns recombinant NL4-3 virus. The data set is described as follows: HIV cell culture assay (antiviral activity, luciferase readout in MT-2 cells). To be noted: Human immunodeficiency virus 1, NL43, MT2. The class given is cell-based. Here is the method: HIV cell culture assay—MT-2 cells, 293T cells and the proviral DNA clone of NL4-3 virus were obtained from the […] AIDS Research and Reference Reagent Program. MT-2 cells were propagated in RPMI 1640 media supplemented with 10% heat inactivated fetal bovine serum (FBS), […] penicillin G and up to 100 units/mL streptomycin. The 293T cells were propagated in DMEM media supplemented with 10% heat inactivated FBS, […] penicillin G and […] streptomycin. A recombinant NL4-3 proviral clone, in which a section of the nef gene was replaced with the Renilla luciferase gene, was used to make the reference virus used in these studies. The recombinant virus was prepared through transfection of the recombinant NL4-3 proviral clone into 293T cells using Transit-293 Transfection Reagent from Mirus Bio LLC (Madison, Wis.). Supernatent was harvested after 2-3 days and the amount of virus present was titered in MT-2 cells using luciferase enzyme activity as a marker by measuring luciferase enzyme activity. Luciferase was quantitated using the EnduRen Live Cell Substrate from Promega (Madison, Wis.). Antiviral activities of compounds toward the recombinant virus were quantified by measuring luciferase activity in MT-2 cells infected for 4-5 days with the recombinant virus in the presence of serial dilutions of the compound.
The 50% effective concentration (EC50) was calculated by using the exponential form of the median effect equation where (Fa)=1/[1+(ED50/drug conc.)m] (Johnson V A, Byington R T. Infectivity Assay. In Techniques in HIV Research. ed. Aldovini A, Walker B D. 71-76. New York: Stockton Press. 1990). The 50% inhibitory concentration (EC50) was calculated by using the exponential form of the median effect equation where percent inhibition=1/[1+(EC50/drug concentration)m], where m is a parameter that reflects the slope of the concentration-response curve.

In general, CC50 refers to the concentration at which the toxic effect on the cells reaches its halfway point. By EC50 is commonly meant the concentration giving half of the maximal effect.

Regarding `Cn1nc(NS(C)(=O)=O)c2c(Cl)ccc(-n3c([C@H](Cc4cc(F)cc(F)c4)NC(=O)Cn4nc(C(F)F)c5c4C(F)(F)[C@@H]4C[C@H]54)nc4cc(N5CCC(C)(C)CC5)ccc4c3=O)c21` (atropisomer, axis not shown; (P)) [Example 1, N—((S)-1-((3P)-3-(4-chloro-1-methyl-3-(methylsulfonamido)-1H-indazol-7-yl)-7-(4,4-dimethylpiperidin-1-yl)-4-oxo-3,4-dihydroquinazolin-2-yl)-2-(3,5-difluorophenyl)ethyl)-2-((3bS,4aR)-3-(difluoromethyl)-5,5-difluoro-3b,4,4a,5-tetrahydro-1H-cyclopropa[3,4]cyclopenta[1,2-c]pyrazol-1-yl)acetamide], the CC50 at 4 days in data set [1] is over 500 nM. Also, in the data set on recombinant NL4-3 virus, the EC50 came to 0.796 nM.
For `Cn1nc(NS(C)(=O)=O)c2c(Cl)ccc(-n3c([C@H](Cc4cc(F)cc(F)c4)NC(=O)Cn4nc(C(F)F)c5c4C(F)(F)[C@@H]4C[C@H]54)nc4cc(N5CCCCCC5)ccc4c3=O)c21` (atropisomer, axis not shown; (P)) [Example 2, N—((S)-1-(7-(azepan-1-yl)-(3P)-3-(4-chloro-1-methyl-3-(methylsulfonamido)-1H-indazol-7-yl)-4-oxo-3,4-dihydroquinazolin-2-yl)-2-(3,5-difluorophenyl)ethyl)-2-((3bS,4aR)-3-(difluoromethyl)-5,5-difluoro-3b,4,4a,5-tetrahydro-1H-cyclopropa[3,4]cyclopenta[1,2-c]pyrazol-1-yl)acetamide], in that order: over 500 nM and 0.243 nM.
Taken in the same sequence, the figures for `COC[C@@H]1CCCN1c1ccc2c(=O)n(-c3ccc(Cl)c4c(NS(C)(=O)=O)nn(C)c34)c([C@H](Cc3cc(F)cc(F)c3)NC(=O)Cn3nc(C(F)F)c4c3C(F)(F)[C@@H]3C[C@H]43)nc2c1` (atropisomer, axis not shown; (P)) [Example 3, N—((S)-1-((3P)-3-(4-chloro-1-methyl-3-(methylsulfonamido)-1H-indazol-7-yl)-7-((S)-2-(methoxymethyl)pyrrolidin-1-yl)-4-oxo-3,4-dihydroquinazolin-2-yl)-2-(3,5-difluorophenyl)ethyl)-2-((3bS,4aR)-3-(difluoromethyl)-5,5-difluoro-3b,4,4a,5-tetrahydro-1H-cyclopropa[3,4]cyclopenta[1,2-c]pyrazol-1-yl)acetamide] were over 500 nM and 0.175 nM.
For `Cn1nc(NS(C)(=O)=O)c2c(Cl)ccc(-n3c([C@H](Cc4cc(F)cc(F)c4)NC(=O)Cn4nc(C(F)F)c5c4C(F)(F)[C@@H]4C[C@H]54)nc4cc(N5CCOC(C)(C)C5)ccc4c3=O)c21` (atropisomer, axis not shown; (P)) [Example 4, N—((S)-1-((3P)-3-(4-chloro-1-methyl-3-(methylsulfonamido)-1H-indazol-7-yl)-7-(2,2-dimethylmorpholino)-4-oxo-3,4-dihydroquinazolin-2-yl)-2-(3,5-difluorophenyl)ethyl)-2-((3bS,4aR)-3-(difluoromethyl)-5,5-difluoro-3b,4,4a,5-tetrahydro-1H-cyclopropa[3,4]cyclopenta[1,2-c]pyrazol-1-yl)acetamide], in that order: over 500 nM and 0.063 nM.
For `CO[C@@H]1CCN(c2ccc3c(=O)n(-c4ccc(Cl)c5c(NS(C)(=O)=O)nn(C)c45)c([C@H](Cc4cc(F)cc(F)c4)NC(=O)Cn4nc(C(F)F)c5c4C(F)(F)[C@@H]4C[C@H]54)nc3c2)C1` (atropisomer, axis not shown; (P)) [Example 5, N—((S)-1-((3P)-3-(4-chloro-1-methyl-3-(methylsulfonamido)-1H-indazol-7-yl)-7-((R)-3-methoxypyrrolidin-1-yl)-4-oxo-3,4-dihydroquinazolin-2-yl)-2-(3,5-difluorophenyl)ethyl)-2-((3bS,4aR)-3-(difluoromethyl)-5,5-difluoro-3b,4,4a,5-tetrahydro-1H-cyclopropa[3,4]cyclopenta[1,2-c]pyrazol-1-yl)acetamide], the CC50 at 4 days in data set [1] was over 500 nM. In addition, the EC50 in the data set on recombinant NL4-3 virus was determined as 0.05 nM.
Taken in the same sequence, the figures for `CS(=O)(=O)Nc1nn(CC(F)F)c2c(-n3c([C@H](Cc4cc(F)cc(F)c4)NC(=O)Cn4nc(C(F)F)c5c4C(F)(F)[C@@H]4C[C@H]54)nc4cc(N5CCOCC5)ccc4c3=O)ccc(Cl)c12` (atropisomer, axis not shown; (P)) [Example 7, N—((S)-1-((3P)-3-(4-chloro-1-(2,2-difluoroethyl)-3-(methylsulfonamido)-1H-indazol-7-yl)-7-morpholino-4-oxo-3,4-dihydroquinazolin-2-yl)-2-(3,5-difluorophenyl)ethyl)-2-((3bS,4aR)-3-(difluoromethyl)-5,5-difluoro-3b,4,4a,5-tetrahydro-1H-cyclopropa[3,4]cyclopenta[1,2-c]pyrazol-1-yl)acetamide] were over 500 nM and 0.085 nM.
Taken in the same sequence, the figures for `O=C(Cn1nc(C(F)F)c2c1C(F)(F)[C@@H]1C[C@H]21)N[C@@H](Cc1cc(F)cc(F)c1)c1nc2cc(N3CCOCC3)ccc2c(=O)n1-c1ccc(Cl)c2c(NS(=O)(=O)C3CC3)nn(CC(F)F)c12` (atropisomer, axis not shown; (P)) [Example 9, N—((S)-1-((3P)-3-(4-chloro-3-(cyclopropanesulfonamido)-1-(2,2-difluoroethyl)-1H-indazol-7-yl)-7-morpholino-4-oxo-3,4-dihydroquinazolin-2-yl)-2-(3,5-difluorophenyl)ethyl)-2-((3bS,4aR)-3-(difluoromethyl)-5,5-difluoro-3b,4,4a,5-tetrahydro-1H-cyclopropa[3,4]cyclopenta[1,2-c]pyrazol-1-yl)acetamide] were over 500 nM and 0.086 nM.
With `C[C@@H]1CN(c2ccc3c(=O)n(-c4ccc(Cl)c5c(NS(=O)(=O)C6CC6)nn(CC(F)F)c45)c([C@H](Cc4cc(F)cc(F)c4)NC(=O)Cn4nc(C(F)F)c5c4C(F)(F)[C@@H]4C[C@H]54)nc3c2)C[C@H](C)O1` (atropisomer, axis not shown; (P)) [Example 10, N—((S)-1-((3P)-3-(4-chloro-3-(cyclopropanesulfonamido)-1-(2,2-difluoroethyl)-1H-indazol-7-yl)-7-((2S,6R)-2,6-dimethylmorpholino)-4-oxo-3,4-dihydroquinazolin-2-yl)-2-(3,5-difluorophenyl)ethyl)-2-((3bS,4aR)-3-(difluoromethyl)-5,5-difluoro-3b,4,4a,5-tetrahydro-1H-cyclopropa[3,4]cyclopenta[1,2-c]pyrazol-1-yl)acetamide], in data set [1], the CC50 at 4 days was over 500 nM. Besides, in the data set on recombinant NL4-3 virus, the EC50 was 0.072 nM.
For `CN1CCN(c2ccc3c(=O)n(-c4ccc(Cl)c5c(NS(C)(=O)=O)nn(C)c45)c([C@H](Cc4cc(F)cc(F)c4)NC(=O)Cn4nc(C(F)F)c5c4C(F)(F)[C@@H]4C[C@H]54)nc3c2)CC1` (atropisomer, axis not shown; (P)) [Example 11, N—((S)-1-((3P)-3-(4-chloro-1-methyl-3-(methylsulfonamido)-1H-indazol-7-yl)-7-(4-methylpiperazin-1-yl)-4-oxo-3,4-dihydroquinazolin-2-yl)-2-(3,5-difluorophenyl)ethyl)-2-((3bS,4aR)-3-(difluoromethyl)-5,5-difluoro-3b,4,4a,5-tetrahydro-1H-cyclopropa[3,4]cyclopenta[1,2-c]pyrazol-1-yl)acetamide], in that order: over 10000 nM and 0.117 nM.
